Several values for one entry are separate records, joined by “and”; a condition that tells them apart may be missing. Identical values can stand only once.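 Five concentrations, 48 hours, 96-well plates. The concentration for 50% growth inhibition is given as GI50. TGI denotes the concentration required for complete inhibition of growth.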
Assays:
Assay in all cases: inhibition of tumour cell growth, NCI panel, 48 h
HCT-116 colon = system: HCT-116 colon
HOP-62 NSCLC = system: HOP-62 NSCLC
HOP-92 NSCLC = system: HOP-92 NSCLC
HT29 colon = system: HT29 colon
MALME-3M melanoma = system: MALME-3M melanoma
NCI-H460 lung = system: NCI-H460 lung
NCI-H522 lung = system: NCI-H522 lung
OVCAR-5 ovarian = system: OVCAR-5 ovarian
SK-MEL-2 melanoma = system: SK-MEL-2 melanoma
UACC-257 melanoma = system: UACC-257 melanoma

In the case of COC(=O)C1=C(C)NC(C)=C(C(=O)OCC(C)C)C1c1ccccc1[N+](=O)[O-] (stereo not given), the GI50 (HCT-116 colon) is reported as 3.02 µM, the TGI (HCT-116 colon) is reported as 12.1 µM and the GI50 (HOP-62 NSCLC) is reported as 5.24 µM. The TGI (HOP-62 NSCLC) was 18.4 µM, the GI50 (HOP-92 NSCLC) was 4.57 µM and the TGI (HOP-92 NSCLC) was 19.8 µM. The GI50 (HT29 colon) was 9.2 µM, the TGI (HT29 colon) was 22.9 µM and the GI50 (MALME-3M melanoma) was 4.47 µM. The TGI (MALME-3M melanoma) was 17.2 µM, the GI50 (NCI-H460 lung) was 3.6 µM and the TGI (NCI-H460 lung) was 15.2 µM. The GI50 (NCI-H522 lung) was 2.4 µM, the TGI (NCI-H522 lung) was 10.7 µM and the GI50 (OVCAR-5 ovarian) was 7.52 µM. The TGI (OVCAR-5 ovarian) was 22.5 µM, the GI50 (SK-MEL-2 melanoma) was 4 µM and the TGI (SK-MEL-2 melanoma) was 13.6 µM. The GI50 (UACC-257 melanoma) was 3.71 µM and the TGI (UACC-257 melanoma) was 12.5 µM.
In the case of O=c1c(O)c(-c2ccc(O)c(O)c2)oc2cc(O)cc(O)c12, the GI50 (HCT-116 colon) is reported as 16.9 µM, the TGI (HCT-116 colon) is reported as > 100 µM and the GI50 (HOP-62 NSCLC) is reported as 15.6 µM. For the same molecule, the TGI (HOP-62 NSCLC) was > 100 µM, the GI50 (HOP-92 NSCLC) was 6.16 µM and the TGI (HOP-92 NSCLC) was > 74.8 µM. For the same molecule, the GI50 (HT29 colon) was 37.3 µM, the TGI (HT29 colon) was > 100 µM and the GI50 (MALME-3M melanoma) was 62 µM. The TGI (MALME-3M melanoma) was > 100 µM, the GI50 (NCI-H460 lung) was 6.73 µM and the TGI (NCI-H460 lung) was 66.9 µM and > 100 µM. For the same molecule, the GI50 (NCI-H522 lung) was 5.54 µM, the TGI (NCI-H522 lung) was > 100 µM and the GI50 (OVCAR-5 ovarian) was 30.2 µM. The TGI (OVCAR-5 ovarian) was > 100 µM, the GI50 (SK-MEL-2 melanoma) was 15.1 µM and the TGI (SK-MEL-2 melanoma) was 47.3 µM and > 100 µM. For the same molecule, the GI50 (UACC-257 melanoma) was 37.4 µM and the TGI (UACC-257 melanoma) was > 100 µM.
For COc1ccc(CC(=O)c2ccc(O)cc2O)cc1, the GI50 (HCT-116 colon) was > 100 µM, the TGI (HCT-116 colon) was > 100 µM and the GI50 (HOP-62 NSCLC) was > 100 µM. The TGI (HOP-62 NSCLC) was > 100 µM, the GI50 (HOP-92 NSCLC) was 12.3 µM and the TGI (HOP-92 NSCLC) was 62.1 µM. For the same molecule, the GI50 (HT29 colon) was > 100 µM, the TGI (HT29 colon) was > 100 µM and the GI50 (MALME-3M melanoma) was 45.2 µM. For the same molecule, the TGI (MALME-3M melanoma) was > 100 µM, the GI50 (NCI-H460 lung) was 56.1 µM and the TGI (NCI-H460 lung) was > 100 µM. For the same molecule, the GI50 (NCI-H522 lung) was 60.8 µM, the TGI (NCI-H522 lung) was > 100 µM and the GI50 (OVCAR-5 ovarian) was > 100 µM. The TGI (OVCAR-5 ovarian) was > 100 µM, the GI50 (SK-MEL-2 melanoma) was > 100 µM and the TGI (SK-MEL-2 melanoma) was > 100 µM. The GI50 (UACC-257 melanoma) was > 100 µM and the TGI (UACC-257 melanoma) was > 100 µM.
Work on COc1cc(/C=C/C(=O)c2ccc(F)cc2)ccc1OCCCN1CCN(CC(=O)Nc2ccc(Cl)cc2C(=O)c2ccccc2Cl)CC1 yielded a GI50 (HCT-116 colon) of 2.23 µM, a TGI (HCT-116 colon) of 11.1 µM and a GI50 (HOP-62 NSCLC) of 15.5 µM. The TGI (HOP-62 NSCLC) was 31.9 µM, the GI50 (HOP-92 NSCLC) was 1.38 µM and the TGI (HOP-92 NSCLC) was 10.3 µM. The GI50 (HT29 colon) was 2.05 µM, the TGI (HT29 colon) was 10.4 µM and the GI50 (MALME-3M melanoma) was 4.23 µM. The TGI (MALME-3M melanoma) was 15.7 µM, the GI50 (NCI-H460 lung) was 4.47 µM and the TGI (NCI-H460 lung) was > 100 µM. The GI50 (NCI-H522 lung) was 14.4 µM, the TGI (NCI-H522 lung) was 33.7 µM and the GI50 (OVCAR-5 ovarian) was 13.4 µM. The TGI (OVCAR-5 ovarian) was > 100 µM, the GI50 (SK-MEL-2 melanoma) was 12.6 µM and the TGI (SK-MEL-2 melanoma) was 32.1 µM. The GI50 (UACC-257 melanoma) was 9.51 µM and the TGI (UACC-257 melanoma) was 47.9 µM.
For Cc1nn(C)c(COc2ccc(N3CCN(S(=O)(=O)N(C)C)CC3)cc2)c1-c1cccc2c(CCCOc3cccc4ccccc34)c(C(=O)O)n(CCN3CCOCC3)c12, the GI50 (HCT-116 colon) was 3.08 µM, the TGI (HCT-116 colon) was 15 µM and the GI50 (HOP-62 NSCLC) was 3.03 µM. It also gave a TGI (HOP-62 NSCLC) of 14.4 µM, a GI50 (HOP-92 NSCLC) of 2.01 µM and a TGI (HOP-92 NSCLC) of 6.56 µM. It also gave a GI50 (HT29 colon) of 2.63 µM, a TGI (HT29 colon) of 6.92 µM and a GI50 (MALME-3M melanoma) of 3.15 µM. The TGI (MALME-3M melanoma) was 15.5 µM, the GI50 (NCI-H460 lung) was 3.17 µM and the TGI (NCI-H460 lung) was 11.1 µM. For the same molecule, the GI50 (NCI-H522 lung) was 3.11 µM, the TGI (NCI-H522 lung) was 9.35 µM and the GI50 (OVCAR-5 ovarian) was 3.96 µM. It also gave a TGI (OVCAR-5 ovarian) of 23.5 µM, a GI50 (SK-MEL-2 melanoma) of 1.95 µM and a TGI (SK-MEL-2 melanoma) of 4.35 µM. For the same molecule, the GI50 (UACC-257 melanoma) was 2.91 µM and the TGI (UACC-257 melanoma) was 9.52 µM.
NC(=O)NC12CC3CC(CC(F)(C3)C1)C2 was tested, and the TGI (HCT-116 colon) was > 100 µM, the TGI (HOP-62 NSCLC) was > 100 µM and the TGI (HOP-92 NSCLC) was > 100 µM. For the same molecule, the TGI (HT29 colon) was > 100 µM, the TGI (MALME-3M melanoma) was > 100 µM and the TGI (NCI-H460 lung) was > 100 µM. The TGI (NCI-H522 lung) was > 100 µM, the TGI (OVCAR-5 ovarian) was > 100 µM and the TGI (SK-MEL-2 melanoma) was > 100 µM. The TGI (UACC-257 melanoma) was > 100 µM.
For C#CCNCCN1C(=O)c2ccc3c4c(ccc(c24)C1=O)C(=O)N(CCNCC#C)C3=O, the GI50 (HCT-116 colon) was 1.75 µM, the TGI (HCT-116 colon) was 11.1 µM and the GI50 (HOP-62 NSCLC) was 4.1 µM. It also gave a TGI (HOP-62 NSCLC) of 14.9 µM, a GI50 (HOP-92 NSCLC) of 7.39 µM and a TGI (HOP-92 NSCLC) of 22.9 µM. It also gave a GI50 (HT29 colon) of 1.65 µM, a TGI (HT29 colon) of 6.2 µM and a GI50 (MALME-3M melanoma) of 0.903 µM. The TGI (MALME-3M melanoma) was 3.14 µM, the GI50 (NCI-H460 lung) was 1.86 µM and the TGI (NCI-H460 lung) was 9.68 µM. It also gave a GI50 (NCI-H522 lung) of 3.98 µM, a TGI (NCI-H522 lung) of 10.9 µM and a GI50 (OVCAR-5 ovarian) of 8.63 µM. For the same molecule, the TGI (OVCAR-5 ovarian) was 18.3 µM, the GI50 (SK-MEL-2 melanoma) was 6.57 µM and the TGI (SK-MEL-2 melanoma) was 14.1 µM. The GI50 (UACC-257 melanoma) was 3.08 µM and the TGI (UACC-257 melanoma) was 9.65 µM.
CN1CCc2[nH]nc(-c3n[nH]c4c3CN(C)CC4)c2C1 was tested, and the TGI (HCT-116 colon) was > 100 µM, the TGI (HOP-62 NSCLC) was > 100 µM and the TGI (HOP-92 NSCLC) was > 100 µM. The TGI (HT29 colon) was > 100 µM, the TGI (MALME-3M melanoma) was > 100 µM and the TGI (NCI-H460 lung) was > 100 µM. The TGI (NCI-H522 lung) was > 100 µM, the TGI (OVCAR-5 ovarian) was > 100 µM and the TGI (SK-MEL-2 melanoma) was > 100 µM. The TGI (UACC-257 melanoma) was > 100 µM.
COc1ccc(C2=CC(c3ccc(OC)cc3Br)N3C=CSC3=N2)cc1 (stereo not given) showed a GI50 (HCT-116 colon) of 1.66 µM, a TGI (HCT-116 colon) of 3.17 µM and a GI50 (HOP-62 NSCLC) of 10.5 µM. It also gave a TGI (HOP-62 NSCLC) of 24.8 µM, a GI50 (HOP-92 NSCLC) of 5.78 µM and a TGI (HOP-92 NSCLC) of 41.8 µM. It also gave a GI50 (HT29 colon) of 2.09 µM, a TGI (HT29 colon) of 4.87 µM and a GI50 (MALME-3M melanoma) of 14 µM. It also gave a TGI (MALME-3M melanoma) of 32.3 µM, a GI50 (NCI-H460 lung) of 11.9 µM and a TGI (NCI-H460 lung) of 34.6 µM. The GI50 (NCI-H522 lung) was 5.22 µM, the TGI (NCI-H522 lung) was 20.7 µM and the GI50 (OVCAR-5 ovarian) was 12.4 µM. The TGI (OVCAR-5 ovarian) was 32.3 µM, the GI50 (SK-MEL-2 melanoma) was 15.2 µM and the TGI (SK-MEL-2 melanoma) was 31.3 µM. The GI50 (UACC-257 melanoma) was 10.8 µM and the TGI (UACC-257 melanoma) was 31.3 µM.
For O=[N+]([O-])c1ccc(N2CCC(CCCC3CCN(c4ccc([N+](=O)[O-])cc4[N+](=O)[O-])CC3)CC2)c([N+](=O)[O-])c1, the TGI (HCT-116 colon) was > 100 µM, the TGI (HOP-62 NSCLC) was 29.5 µM and the TGI (HOP-92 NSCLC) was 26.4 µM. The TGI (HT29 colon) was 22.2 µM, the TGI (MALME-3M melanoma) was 42.4 µM and the TGI (NCI-H460 lung) was 28.8 µM. For the same molecule, the TGI (NCI-H522 lung) was 42.8 µM, the TGI (OVCAR-5 ovarian) was 45.7 µM and the TGI (SK-MEL-2 melanoma) was 32 µM. For the same molecule, the TGI (UACC-257 melanoma) was 28.9 µM.

From PubChem BioAssay (NCI)
